In ChEMBL document CHEMBL1201862, “PubChem BioAssay data set” (2004):
One block for each compound: values may come before it. Activity calls are given as the source filed them.

What was measured:
Cytochrome P450 3A4 = Cytochrome P450 3A4 (Homo sapiens, UniProt P08684);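 further: CYP3A4 tested as one member of a cytochrome P450 panel screen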
Cytochrome P450 1A2 = target: T1, Cytochrome P450 1A2 (Homo sapiens, UniProt P05177);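 further: PubChem cytochrome P450 panel assay, CYP1A2 panel member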
T1 sequence (P05177 whole entry): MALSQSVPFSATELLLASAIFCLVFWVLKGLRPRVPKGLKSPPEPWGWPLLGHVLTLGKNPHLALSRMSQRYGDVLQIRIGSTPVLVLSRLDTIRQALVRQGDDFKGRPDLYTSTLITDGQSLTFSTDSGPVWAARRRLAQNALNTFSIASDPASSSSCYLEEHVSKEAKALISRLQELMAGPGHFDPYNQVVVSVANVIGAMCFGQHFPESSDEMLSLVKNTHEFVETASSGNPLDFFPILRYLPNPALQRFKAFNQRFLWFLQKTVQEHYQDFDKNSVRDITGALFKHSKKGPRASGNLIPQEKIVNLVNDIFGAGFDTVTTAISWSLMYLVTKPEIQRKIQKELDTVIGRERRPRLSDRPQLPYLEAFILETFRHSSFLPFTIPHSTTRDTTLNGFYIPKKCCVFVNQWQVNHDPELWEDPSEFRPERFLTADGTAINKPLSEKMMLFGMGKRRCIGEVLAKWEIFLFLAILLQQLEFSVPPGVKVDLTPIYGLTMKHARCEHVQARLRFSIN

[1] = system: Streptococcus sp. 'group A'; test: Streptococcus pyogenes SK(-)GAS viability under kanamycin – luminescence, BacTiterGlo, confirmation, counter-screen for streptokinase expression inhibitor project, dose response (AID 1900); assay type: functional, organism-based
Streptococcus = test: GAS UMAA2166 growth inhibition – luminescence, BacTiterGlo, counter-screen for streptokinase expression inhibitor project, dose response (AID 1915); assay type: functional, organism-based;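 further: potency for reduction of bacterial viability or growth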
[2] = Trypanosoma cruzi growth suppression in host cells – NIH3T3 host cells, beta-gal luminescence, confirmation (AID 2044); assay type: functional, cell-based;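 further: intracellular parasites grown in NIH/3T3 mouse fibroblasts as host cells; luminescent beta-galactosidase reporter signal from transgenic T. cruzi replicating inside host cells; inhibitors lower the luminescence signal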
[3] = NIH3T3 cell viability loss – ATP luminescence, mouse fibroblasts, counter-screen, dose response (AID 2010); assay type: functional, cell-based;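 further: cells exposed to compound for about 90 hours before reading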
Cytochrome P450 2D6 = Cytochrome P450 2D6 (Homo sapiens, UniProt P10635);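 further: CYP2D6 member of a cytochrome P450 panel assay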
Cytochrome P450 2C9 = Cytochrome P450 2C9 (Homo sapiens, UniProt P11712)
Chain of Cytochrome P450 2C9 (P11712 whole entry): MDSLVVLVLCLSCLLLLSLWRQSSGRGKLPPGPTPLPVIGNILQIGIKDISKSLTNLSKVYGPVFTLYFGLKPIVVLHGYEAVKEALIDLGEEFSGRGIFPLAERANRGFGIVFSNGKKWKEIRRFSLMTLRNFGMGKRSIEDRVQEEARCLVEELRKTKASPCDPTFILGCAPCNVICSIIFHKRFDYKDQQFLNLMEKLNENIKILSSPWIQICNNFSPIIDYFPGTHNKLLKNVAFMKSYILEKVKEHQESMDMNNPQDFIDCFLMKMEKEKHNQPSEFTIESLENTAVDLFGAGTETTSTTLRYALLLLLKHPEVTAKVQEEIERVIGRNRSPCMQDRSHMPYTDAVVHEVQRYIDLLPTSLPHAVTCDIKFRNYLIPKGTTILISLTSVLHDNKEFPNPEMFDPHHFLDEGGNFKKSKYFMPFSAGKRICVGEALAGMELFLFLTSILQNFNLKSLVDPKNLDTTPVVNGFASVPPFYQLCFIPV

Chain of Cytochrome P450 3A4 (P08684 whole entry): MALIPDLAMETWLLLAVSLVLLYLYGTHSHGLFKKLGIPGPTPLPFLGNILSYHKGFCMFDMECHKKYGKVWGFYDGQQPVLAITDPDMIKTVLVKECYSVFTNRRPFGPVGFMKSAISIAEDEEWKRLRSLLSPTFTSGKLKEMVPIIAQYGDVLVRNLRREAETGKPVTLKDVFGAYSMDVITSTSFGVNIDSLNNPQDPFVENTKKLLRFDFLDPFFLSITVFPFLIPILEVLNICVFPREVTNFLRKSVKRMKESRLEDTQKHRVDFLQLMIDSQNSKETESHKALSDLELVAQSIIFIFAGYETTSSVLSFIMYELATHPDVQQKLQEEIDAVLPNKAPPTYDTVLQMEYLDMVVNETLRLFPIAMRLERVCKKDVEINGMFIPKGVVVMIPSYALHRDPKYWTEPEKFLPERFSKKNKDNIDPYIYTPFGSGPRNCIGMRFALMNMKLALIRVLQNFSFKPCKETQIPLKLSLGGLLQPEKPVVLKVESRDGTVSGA
Chain of Cytochrome P450 2D6 (P10635 whole entry): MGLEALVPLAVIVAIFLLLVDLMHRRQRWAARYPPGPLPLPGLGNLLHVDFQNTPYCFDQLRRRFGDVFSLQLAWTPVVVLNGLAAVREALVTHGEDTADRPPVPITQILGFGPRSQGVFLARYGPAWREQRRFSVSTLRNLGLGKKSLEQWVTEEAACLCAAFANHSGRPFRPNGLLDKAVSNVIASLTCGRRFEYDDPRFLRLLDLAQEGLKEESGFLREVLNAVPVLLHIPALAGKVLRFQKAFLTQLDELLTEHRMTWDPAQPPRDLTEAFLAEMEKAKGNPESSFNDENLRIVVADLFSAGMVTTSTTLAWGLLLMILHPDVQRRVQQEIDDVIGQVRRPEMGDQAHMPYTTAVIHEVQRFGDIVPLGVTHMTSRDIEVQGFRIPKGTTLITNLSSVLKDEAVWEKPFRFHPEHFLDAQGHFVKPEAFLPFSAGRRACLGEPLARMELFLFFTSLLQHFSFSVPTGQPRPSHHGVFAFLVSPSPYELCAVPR

Compound: Cc1nc(O)c2nsc(C(=O)Nc3ccc(N4CCCC(O)C4)cc3)c2n1 (stereo not given)
EC50 [1]: 3.32 µM (active)
EC50 (Streptococcus): > 150 µM (not active)

Compound: CCOC(=O)c1cc2c(=O)n3ccccc3nc2n(C(C)C)/c1=N/C(=O)c1c(-c2c(F)cccc2Cl)noc1C
EC50 [2]: 2.18 µM (active)
EC50 [3]: > 60 µM (inconclusive)

Compound: Clc1ccccc1-c1ccc2ncnc(NC3CCNCC3)c2c1
AC50 (Cytochrome P450 2D6): 20 µM (inconclusive)
AC50 (Cytochrome P450 1A2): 15.8 µM (inconclusive)

Compound: C=CCc1cccc(C2Nc3ccccc3C(=O)N2O)c1O (stereo not given)
AC50 (Cytochrome P450 2D6): 0.355 µM (inconclusive)

Compound: CN(Cc1ccco1)c1ncnc2ccc(-c3ccccc3Cl)cc12
AC50 (Cytochrome P450 2C9): 1.58 µM (inconclusive)

Compound: Nc1nonc1-c1nc2ccccc2n1CC(=O)N/N=C\c1ccc(-c2ccc(Cl)cc2)o1
EC50 [1]: 1.02 µM (active)
EC50 (Streptococcus): 2.38 µM (active)

Compound: O=C(OC(c1ccccc1)c1nccc2ccccc12)c1cc([N+](=O)[O-])cc([N+](=O)[O-])c1 (stereo not given)
EC50 [2]: 1.01 µM (active)
EC50 [3]: > 60 µM (not active)

Compound: CCOc1ccc(-n2c(SCC(=O)Nc3ccc(OC)cc3OC)nc3c(c2=O)SCC3)cc1
AC50 (Cytochrome P450 3A4): 15.8 µM (inconclusive)

Compound: Cc1nn(-c2ccccc2)c(N2CCCC2)c1/C=N/NC(=O)c1cc(-c2ccccc2)nc2ccccc12
EC50 [2]: 1.96 µM (active)
EC50 [3]: > 60 µM (not active)

Compound: CCn1cc(CN2CCCC(C(=O)c3ccc(-c4ccccc4)c(F)c3)C2)cn1 (stereo not given)
EC50 [2]: 0.569 µM (active)
EC50 [3]: > 60 µM (not active)

Compound: Cc1cc(COC(=O)C2N3C(=O)[C@@H](NC(=O)COc4ccccc4)[C@H]3SC2(C)C)on1 (stereo not given in full)
EC50 [1]: 0.175 µM (active)
EC50 (Streptococcus): 0.384 µM (active)

Compound: O=C(NC(N1CCOCC1)C(Cl)(Cl)Cl)c1cc([N+](=O)[O-])cc([N+](=O)[O-])c1 (stereo not given)
EC50 [2]: 0.9 µM (active)
EC50 [3]: > 60 µM (not active)

Compound: CC(C)CCc1noc(CN(C)CC2CCN(Cc3ccccc3)CC2)n1
EC50 [2]: 1.47 µM (active)
EC50 [3]: > 60 µM (not active)

Compound: Clc1ccc(-c2noc(CN3CCCCC3)n2)cc1
AC50 (Cytochrome P450 2D6): 3.16 µM (inconclusive)

Compound: O=C(CSc1nnc(Cc2cc(O)nc(O)n2)n1-c1ccccc1)N1CCCc2ccccc21
AC50 (Cytochrome P450 3A4): 15.8 µM (inconclusive)

Compound: O=[N+]([O-])c1cc(Cc2cc([N+](=O)[O-])c3cccnc3c2O)c(O)c2ncccc12
AC50 (Cytochrome P450 2D6): 3.98 µM (inconclusive)
AC50 (Cytochrome P450 2C9): 5.01 µM (inconclusive)

Compound: Cc1ccc(NC(=O)C2CCN(c3cnccn3)CC2)cc1C
EC50 [2]: 1.55 µM (active)
EC50 [3]: > 60 µM (not active)

Compound: CC(=O)OCCNC(=O)c1cccnc1
AC50 (Cytochrome P450 3A4): 20 µM (inconclusive)
AC50 (Cytochrome P450 1A2): 31.6 µM (inconclusive)

Compound: Nc1nc(Nc2ccccc2)nc2c1ncn2[C@@H]1O[C@@H](CO)[C@H](O)[C@@H]1O
AC50 (Cytochrome P450 1A2): 31.6 µM (inconclusive)

Next, values leading:

AC50 (Cytochrome P450 3A4): 25.1 µM (inconclusive)
AC50 (Cytochrome P450 1A2): 20 µM (inconclusive)
Compound: C#CCCCC(=O)Nc1ccccc1

AC50 (Cytochrome P450 3A4): 25.1 µM (inconclusive)
AC50 (Cytochrome P450 2D6): 15.8 µM (inconclusive)
AC50 (Cytochrome P450 2C9): 15.8 µM (inconclusive)
Compound: CCC(=O)NCc1c(Cl)cccc1-n1cccc1

AC50 (Cytochrome P450 3A4): 1.12 µM (inconclusive)
Compound: Cc1nn(Cc2ccc(Cl)cc2)c(C)c1NC(=O)Cn1nc([N+](=O)[O-])c(Cl)c1C

AC50 (Cytochrome P450 3A4): 22.4 µM (inconclusive)
AC50 (Cytochrome P450 2C9): 12.6 µM (inconclusive)
Compound: CCCc1c(O)c2ccccc2n(-c2ccccc2)c1=O

AC50 (Cytochrome P450 1A2): 39.8 µM (inconclusive)
Compound: CO/C(O)=C1\C(C)=NC(C)=C([N+](=O)[O-])[C@@H]1c1ccccc1C(F)(F)F

AC50 (Cytochrome P450 3A4): 15.8 µM (inconclusive)
Compound: CCCN1CN=C(S)N(c2cccc(C)c2C)C1

AC50 (Cytochrome P450 2D6): 39.8 µM (inconclusive)
Compound: Cc1cnc(CNc2nc(-c3ccc(N(C)C)cc3)nc3ccccc23)cn1

AC50 (Cytochrome P450 2D6): 25.1 µM (inconclusive)
Compound: CC(C(=O)Nc1ccccc1Sc1ccccc1)N(c1ccccc1)S(C)(=O)=O (stereo not given)

AC50 (Cytochrome P450 1A2): 28.2 µM (inconclusive)
Compound: CCc1ccccc1NC(=O)C(C)n1nc([N+](=O)[O-])c(Br)c1C (stereo not given)
